Laboratory results: patent publication US9962388B2, “Pyrrolopyrimidine compounds used as TLR7 agonist” (priority 2014, dated 2018)

How the values were obtained:
[1] = molecular target: Toll-like receptor 7 (Homo sapiens (Human), UniProt Q9NYK1); assay: Toll-like receptor 7 in vitro receptor binding activity screen (HEK-blue hTLR7 cell, alkaline phosphatase/Quanti-Blue readout); format: cell-based; settings: HEK-blue hTLR7 cell, 24 h; read-out: TLR7 EC50
Experimental: Toll-Like Receptor 7 and Toll-Like Receptor 8 In Vitro Receptor Binding Activity Screen
HEK-blue hTLR7 cell and HEK-blue hTLR8 cell (available from InvivoGen)
1. Preparation of 96-well compound plate:
The compounds were gradient diluted with DMSO in 3-fold using liquid work station POD starting at a concentration of 10 mmol/L and 10 points were diluted (2nd column to 11th column, and each point was duplicated). At 12th column, 1 μL of 5 mg/mL positive compound R848 was added as positive control; and at 1st column, 1 μL of DMSO was added as negative control. Each well contained 1 μL of DMSO.
2. The cells in culture flask were collected and the cell density was diluted to 250,000 cells/mL.
3. 200 μL (50,000 cells/well) of cell suspension was added into prepared compound plate and the final concentration of DMSO in each well was 0.5%.
4. The culture plates containing cells and the compounds were incubated in CO2 incubator for 24 h at 37° C., 5% CO2.
5. After 24 h incubation, 20 μL of supernatant was removed from each well to a 96-well transparent assay plate. To each well of the assay plate was added 180 μL of Quanti-Blue reagent and the plate was incubated in an incubator at 37° C., 5% CO2 for 1 h.
6. After 1 h, the content of alkaline phosphatase in 20 μL of supernatant was determined using Microplate Reader OD650.
7. EC50 of each compound was obtained with Prism software.

[2] = test system: human peripheral blood mononuclear cells (PBMC); assay: Peripheral blood mononuclear cell assay (cytokine induction, CBA); format: cell-based; settings: Homo sapiens, PBMC, 24 h, human PBMC, 24 h, Minimal Effective Concentration; read-out: INF-α MEC
Experimental: Peripheral Blood Mononuclear Cell Assay The purpose of this example is to determine the expression level of cytokines 24 h after stimulation to human peripheral blood mononuclear cells (PBMC) with the compounds. The cell supernatant was assayed without dilution and the levels of IFN-α and TNF-α were directly determined. The compound was firstly formulated into 20 mM DMSO stock solution and was gradient diluted with cell medium in 10-fold with the total number of 11 diluting points. The compounds in 9 diluting points (the highest concentration was 200 μmol/L) were added into 96-well plate with 50 μL in each well. Fresh human peripheral blood mononuclear cells were inoculated, with 150 μL in each well containing 450,000 cells. The cell culture plate was incubated in an incubator at 37° C., 5% CO2 for 24 h. After incubation, the culture plate was centrifuged at 1200 rpm for 5 min and the supernatant was collected and stored at −20° C. for determination. The determination of cytokine was performed using Cytometric Bead Array (CBA) of BD-Pharmingen on flow cytometer. Using the above determining method, the lowest drug concentration stimulating cytokine level which is over 3 times greater than the lowest detectable limit was designated as the MEC (Minimal Effective Concentration) value in the cytokine stimulating test.

Chain of Toll-like receptor 7 (Q9NYK1 27-1049): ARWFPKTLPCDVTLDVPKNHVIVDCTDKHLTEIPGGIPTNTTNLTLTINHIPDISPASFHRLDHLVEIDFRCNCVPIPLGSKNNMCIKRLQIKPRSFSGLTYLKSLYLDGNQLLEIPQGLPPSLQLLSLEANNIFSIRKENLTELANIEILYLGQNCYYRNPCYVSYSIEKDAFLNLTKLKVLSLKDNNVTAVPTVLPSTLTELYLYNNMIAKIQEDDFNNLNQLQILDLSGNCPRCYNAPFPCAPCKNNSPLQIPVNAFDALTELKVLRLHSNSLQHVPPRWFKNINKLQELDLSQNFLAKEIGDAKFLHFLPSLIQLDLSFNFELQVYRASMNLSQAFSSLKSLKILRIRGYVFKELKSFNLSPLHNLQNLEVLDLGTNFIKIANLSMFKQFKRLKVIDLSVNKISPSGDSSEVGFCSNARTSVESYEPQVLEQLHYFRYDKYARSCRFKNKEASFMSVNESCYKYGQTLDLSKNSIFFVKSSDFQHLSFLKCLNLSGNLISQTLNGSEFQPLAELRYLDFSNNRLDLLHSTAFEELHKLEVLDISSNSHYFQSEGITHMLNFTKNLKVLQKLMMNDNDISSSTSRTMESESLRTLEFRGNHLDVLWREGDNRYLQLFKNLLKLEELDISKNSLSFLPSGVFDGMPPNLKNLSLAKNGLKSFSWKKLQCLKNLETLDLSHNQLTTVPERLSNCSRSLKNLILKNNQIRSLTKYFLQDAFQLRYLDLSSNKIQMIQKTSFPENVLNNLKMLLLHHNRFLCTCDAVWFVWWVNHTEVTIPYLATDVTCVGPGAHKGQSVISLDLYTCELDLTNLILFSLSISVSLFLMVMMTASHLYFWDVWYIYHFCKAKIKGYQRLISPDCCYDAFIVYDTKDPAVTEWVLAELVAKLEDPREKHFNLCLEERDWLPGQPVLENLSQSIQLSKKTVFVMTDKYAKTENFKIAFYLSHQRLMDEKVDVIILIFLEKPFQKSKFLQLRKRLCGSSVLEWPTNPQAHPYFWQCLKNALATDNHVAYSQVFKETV

SMILES | EC50 [1] [nM] | minimal effective concentration [2] [µM]
CCCCOc1nc(N)c2[nH]cc(Cc3ccc4c(c3)CN(C)CC4)c2n1 [Example 29, 2-butoxy-7-((2-methyl-1,2,3,4-tetrahydroisoquinoline-7-yl)methyl)-5H-pyrrolo[3,2-d]pyrimidine-4-amine] | 100 to 1000 | 1e-05 to 0.001
CCCCOc1nc(N)c2[nH]cc(Cc3cccc(CN4CCCC4)c3)c2n1 [Example 4, 2-butoxy-7-(3-(pyrrolidine-1-ylmethyl)benzyl)-5H-pyrrolo[3,2-d]pyrimidine-4-amine] | 100 to 1000 | 0.01 to 100
CCCCOc1nc(N)c2[nH]cc(Cc3ccc(CN4CCCC4)nc3)c2n1 [Example 22, 2-butoxy-7-((6-(pyrrolidine-1-ylmethyl)pyridine-3-yl)methyl)-5H-pyrrolo[3,2-d]pyrimidine-4-amine] | 100 to 1000 | 0.001 to 0.01
CCCCOc1nc(N)c2[nH]c(C#N)c(Cc3ccc(CN4CCCC4)cc3)c2n1 [Example 42, 4-amino-2-butoxy-7-(4-(pyrrolidine-1-ylmethyl)benzyl)-5H-pyrrolo[3,2-d]pyrimidine-6-carbonitrile] | 1 to 100 | 1e-05 to 0.001
CCCCOc1nc(N)c2[nH]cc(Cc3ccc4c(c3)CN(C(C)C)CC4)c2n1 [Example 31, 2-butoxy-7-((2-isopropyl-1,2,3,4-tetrahydroisoquinoline-7-yl)methyl)-5H-pyrrolo[3,2-d]pyrimidine-4-amine] | 100 to 1000 | 0.001 to 0.01
CCCCOc1nc(N)c2[nH]cc(Cc3ccc4c(c3)CNCC4)c2n1 [Example 28, 2-butoxy-7-((1,2,3,4-tetrahydroisoquinoline-7-yl)methyl)-5H-pyrrolo[3,2-d]pyrimidine-4-amine] | 100 to 1000 | 0.001 to 0.01
CCCCOc1nc(N)c2[nH]cc(Cc3ccc4c(c3)CN(CC)CC4)c2n1 [Example 30, 2-butoxy-7-((2-ethyl-1,2,3,4-tetrahydroisoquinoline-7-yl)methyl)-5H-pyrrolo[3,2-d]pyrimidine-4-amine] | 100 to 1000 | 0.001 to 0.01
